Assay results as given in patent US4122189A, “Medicine for renal diseases” (priority 1976, dated 1978).

How the values were obtained:
[1] = test system: hetero antikidney serum nephritis; experiment: Therapy for hetero antikidney serum nephritis; assay type: in vivo, Wister type male rats; conditions: 1000 mg/kg/day oral
Procedure: Antikidney serum (rabbit) prepared in accordance with the Heymann method was intravenously injected into tail vein at a dose of 0.5 ml per 100 g of rat at one time per day.
In Table 3, the symbols for tissue observation mean the following conditions of tissues.
A: proliferation of polymorphs of glomeruli
C: thickning of the basement membrane of the glomerular capillaries
D: obliteration of the glomerular capillary loops
F: exudate in Bowman's subcapsule space
G: thickning of Bowman's capsule
H: crescent formation of glomeruli
I: proteinaeous fluid in the tubli
J: swelling of tublar epithelium
K: proliferation of interstitial tissue cells
In Table 4, the degree of lesions were rated as follows:
0: no lesion of tissue is found;
0.5: slight lesion of tissue is found;
1: clear sporadic or slight lesion of tissue is found;
3: inflamed or clear lesion of tissue is found.
The average of ratings for 5 rats in each group is shown.
The level of significance was considered as the same with those of Table 1.

[2] = test system: patients having excessive urinary protein; conditions: 150 to 1800 mg/day, with or without additional medicines
Procedure: When used in combination, the additional medicines were dosed in the amount usual for each of such additional medicines.
The amount of urine protein was measured for the clinical tests. The elimination or remarkable degree of reduction of urine protein was considered to be effective.
The non-steroid anti-inflammatory agents such as Ibuprofen, Indomethacin, Azapropazone, and steroids such as Predonizolone and antibiotics such as Cephalexin, methyl chlorophenyl iso-oxazolyl penicillin were used as the additional medicines.

mouse = experiment: Toxicity test (LD50); assay type: in vivo, ddY type mice; conditions: mice, oral and intraperitoneal
Procedure: The test was carried out by the oral dose and the intraperitoneal injection of each solution in 10 ddY type male mice and 10 ddY femal mice. The results after 72 hours from the administration were observed. Probit analysis was used for statistical treatment of mortality.

Aminonucleoside nephrose = experiment: Therapy for Aminonucleoside nephrose (urine and blood biochemical observations); assay type: in vivo, SD type male rats; conditions: 1000 mg/kg/day oral, 10 days
Procedure: SD type male rats (weight about 100 g) were fed in each individual room of a metabolism cage under the free water and feed supply.
The rats were classified as the normal group for eight rats, the renal disease group for eight rats and the therapy group for eight rats.
0.3% Aminoucleoside aqueous solution (hereinafter referring to as AN) was administrated by intramuscular injection at a dose of 0.3 ml per 100 g of the rat.
The administration was continued from the 1st day to the 14th day at one time per day.
The data in Tables are average value for eight rats in each group.
The difference between the renal disease group and the therapy group was significant. The symbol * means the existence of significant difference in 5% of the level of significance and the symbol (*) means the existence of significant difference in 5 to 1% of the level of significance. The symbol -- means non-significant difference.

[3] = average lesion rating 0-3 (3 inflamed or clear), normal 0, renal disease group 1.1, significance *
[4] = average lesion rating 0-3 (3 inflamed or clear), normal 0, renal disease group 1.7, significance *

## C[S+](C)CCC(N)C(=O)O (stereo not shown) [Methyl methionine sulfonium chloride]
[1]; 9 days, normal 6.3, renal disease group 121, non-significant
  Urine urea: 104 mg/day
[1]; 9 days, normal 23, renal disease group 25, non-significant
  Urea nitrogen in blood: 24 mg/dL
[1]; average lesion rating 0-3 (3 inflamed or clear), normal 0, renal disease group 0, non-significant
  Observation of tissue F: exudate in Bowman's subcapsule space: 0
[1]; average lesion rating 0-3 (3 inflamed or clear), normal 0, renal disease group 0.2, non-significant
  Observation of tissue K: proliferation of interstitial tissue cells: 0.3
[1]; [3]
  Observation of tissue B: thrombus formation: 0.1
  Observation of tissue G: thickning of Bowman's capsule: 0
  Observation of tissue H: crescent formation of glomeruli: 0
[1]; [4]
  Observation of tissue C: thickning of the basement membrane of the glomerular capillaries: 0.4
  Observation of tissue D: obliteration of the glomerular capillary loops: 0.3
[1]; average lesion rating 0-3 (3 inflamed or clear), normal 0, renal disease group 2.2, significance *
  Observation of tissue E: anemia: 0.1
[1]; average lesion rating 0-3 (3 inflamed or clear), normal 0.5, renal disease group 1.6, non-significant
  Observation of tissue J: swelling of tublar epithelium: 1.3
[1]; average lesion rating 0-3 (3 inflamed or clear), normal 0.6, renal disease group 1.8, significance (*)
  Observation of tissue I: proteinaeous fluid in the tubli: 0.8
[1]; average lesion rating (0 none, 0.5 slight, 1 clear sporadic or slight, 3 inflamed or clear), normal 0, renal disease group 1.4, significance (*)
  Observation of tissue A: proliferation of polymorphs of glomeruli: 0.5
[2]
  effective cases (elimination or remarkable reduction of urine protein): 32 cases among 45 patients
mouse
  toxicity: low toxicity
Aminonucleoside nephrose; normal 0.1, renal disease group 2.4, significance *
  Urine albumin: 1.6 g/dL
Aminonucleoside nephrose; normal 0.6, renal disease group 5.2, significance *
  Urine protein: 4.0 g/dL
Aminonucleoside nephrose; normal 2.60, renal disease group 0.49, significance *
  Serum albumin: 1.25 g/dL
Aminonucleoside nephrose; normal 5.1, renal disease group 5.4, non-significant
  Serum K^+: 5.6 m Eq/l
Aminonucleoside nephrose; normal 6.48, renal disease group 3.60, significance *
  Serum total protein: 4.47 g/dL
Aminonucleoside nephrose; normal 6.6, renal disease group 196, significance *
  Urine albumin: 106 mg/day
Aminonucleoside nephrose; normal 6.7, renal disease group 6.5, significance (*)
  Urine pH: 6.2
Aminonucleoside nephrose; normal 9.4, renal disease group 8.5, significance (*)
  Urine amount: 6.9 mL/day
Aminonucleoside nephrose; normal 25.2, renal disease group 44.8, significance *
  Serum urea nitrogen: 23.8 mg/dL
Aminonucleoside nephrose; normal 54, renal disease group 441, significance *
  Urine protein: 294 mg/day
Aminonucleoside nephrose; normal 84.3, renal disease group 277, significance *
  Serum cholesterol: 149 mg/dL
Aminonucleoside nephrose; normal 134, renal disease group 135, non-significant
  Serum Na^+: 134 m Eq/l
Aminonucleoside nephrose; normal 160, renal disease group 54, significance *
  Urine Na: 109 m Eq/l
Aminonucleoside nephrose; normal 169, renal disease group 135, non-significant
  Serum glycose: 138 mg/dL
Aminonucleoside nephrose; normal 180, renal disease group 196, significance *
  Weight: 176 g
Aminonucleoside nephrose; normal 230, renal disease group 204, non-significant
  Urine K: 210 m Eq/l
